A word on the IC50: it is the concentration at which inhibition is half-maximal. The low end stands for greater potency in that assay, the high end for weaker potency in that assay.

Several values for one entry are separate records, joined by “and”; a condition that tells them apart may be missing. Equal entries are not always repeated.

Chain of Alpha-protein kinase 1 (Q96QP1 whole entry): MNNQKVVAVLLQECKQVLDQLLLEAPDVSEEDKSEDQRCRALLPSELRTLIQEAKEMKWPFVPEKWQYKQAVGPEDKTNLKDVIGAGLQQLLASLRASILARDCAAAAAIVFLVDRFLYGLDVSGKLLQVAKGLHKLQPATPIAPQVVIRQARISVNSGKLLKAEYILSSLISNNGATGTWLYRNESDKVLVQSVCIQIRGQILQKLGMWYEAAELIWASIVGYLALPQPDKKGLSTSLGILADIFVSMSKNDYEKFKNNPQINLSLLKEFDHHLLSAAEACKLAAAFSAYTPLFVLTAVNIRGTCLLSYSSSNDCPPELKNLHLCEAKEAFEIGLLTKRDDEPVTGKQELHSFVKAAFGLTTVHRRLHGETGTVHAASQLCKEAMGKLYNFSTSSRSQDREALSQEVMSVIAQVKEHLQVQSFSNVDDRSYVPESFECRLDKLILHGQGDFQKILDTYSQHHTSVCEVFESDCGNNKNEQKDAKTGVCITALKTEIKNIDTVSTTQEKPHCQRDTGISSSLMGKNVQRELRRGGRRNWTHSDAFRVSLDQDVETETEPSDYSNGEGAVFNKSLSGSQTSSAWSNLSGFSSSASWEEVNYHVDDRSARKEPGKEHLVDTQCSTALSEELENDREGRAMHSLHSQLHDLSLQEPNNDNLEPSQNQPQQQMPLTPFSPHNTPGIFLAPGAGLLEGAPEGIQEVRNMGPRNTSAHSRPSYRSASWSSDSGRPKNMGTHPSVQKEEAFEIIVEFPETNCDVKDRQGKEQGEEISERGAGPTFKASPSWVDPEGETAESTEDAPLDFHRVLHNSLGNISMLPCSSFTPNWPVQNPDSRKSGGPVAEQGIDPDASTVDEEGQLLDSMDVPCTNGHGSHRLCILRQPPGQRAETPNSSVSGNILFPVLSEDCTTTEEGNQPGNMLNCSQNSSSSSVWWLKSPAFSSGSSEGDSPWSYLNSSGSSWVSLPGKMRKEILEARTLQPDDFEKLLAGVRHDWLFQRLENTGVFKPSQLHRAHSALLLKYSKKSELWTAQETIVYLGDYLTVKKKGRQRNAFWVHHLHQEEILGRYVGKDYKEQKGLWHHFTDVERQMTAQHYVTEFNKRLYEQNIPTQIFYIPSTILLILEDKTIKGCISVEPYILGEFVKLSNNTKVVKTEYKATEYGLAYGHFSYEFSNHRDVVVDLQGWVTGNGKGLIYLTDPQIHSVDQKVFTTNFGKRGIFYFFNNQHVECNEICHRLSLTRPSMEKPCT

The test concerns the target Alpha-protein kinase 1 (Homo sapiens, UniProt Q96QP1). Description: ALPK1 In Vitro Kinase Assay. The procedure: ALPK1 kinase activity was measured in an in vitro assay using ADP-Heptose as the ALPK1 ligand and activator of its kinase activity and TIFA protein as the ALPK1 phosphorylation substrate. Since phosphorylated TIFA proteins oligomerize, Homogeneous Time-Resolved Fluorescence (HTRF) was used to measure protein: protein interaction between HA-tagged TIFA proteins as an indicator of TIFA phosphorylation. In brief, dose-response studies were performed with […] in 384-well assay plates. Each well contained 0.1 mg TIFA, ALPK1 (2 nM final concentration in reaction mixture) and kinase buffer (100 mM of HEPES pH 7.4, 4 mM DTT, 40 mM MgCl2, 20 mM of β-Glycerol phosphate disodium salt, 0.4 mM of Na3VO4, 0.16 mg/mL). Titrations of the test compounds were prepared in dimethylsulphoxide (DMSO). The reaction was initiated by addition of ATP and ADP-Heptose.
`CC(C)(c1ccc(Br)cc1)c1csc(NC(=O)NCc2ccc(N3CCNCC3)c(Br)c2)n1` [US20240109853, Compound A097] gave an IC50 of 87 nM.
Consider `COc1ccc(C(C)(C)c2csc(NC(=O)NCc3cc(F)c(C4CCNCC4)c(F)c3)n2)cc1` [US20240109853, Compound A151], for which the IC50 turned out to be 43 nM.
For `CC(C)(c1ccc(Br)cc1)c1csc(NC(=O)NCc2ccc(C3CCNCC3)c(F)c2)n1` [US20240109853, Compound A222], the IC50 is 56 nM.
In the case of `C#C[C@@](C)(c1ccc(Cl)cc1)c1nc(NC(=O)NCCO)sc1Cl` [US20240109853, Compound A247], 408 nM corresponded to half-maximal inhibition (IC50). This IC50 is about 7.3-fold higher than that of the compound before.
Compound `C#C[C@](C)(c1ccc(Cl)cc1)c1nc(NC(=O)NCCO)sc1Cl` [US20240109853, Compound A248] gave an IC50 of 1290 nM.
Regarding `C#CC(C)(c1ccc(Cl)cc1)c1csc(NC(=O)N2CC(N)C2)n1` (configuration not stated) [US20240109853, Compound A275], the IC50 is 503 nM and 246 nM.
In turn, `C#CC(C)(c1ccc(Cl)cc1)c1csc(NC(=N)N)n1` (configuration not stated) [US20240109853, Compound A276] gave an IC50 of 345 nM.
As for `C#C[C@@](C)(c1ccc(Cl)cc1)c1csc(NC(=O)NC(C)CO)n1` (some centres not stated) [US20240109853, Compound A312], the IC50 was 545 nM and 614 nM.
Next, `C#C[C@](C)(c1ccc(Cl)cc1)c1csc(NC(=O)NC(C)CO)n1` (some centres not stated) [US20240109853, Compound A314]: 261 nM and 81 nM; `C#C[C@](C)(c1ccc(Cl)cc1)c1csc(NC(=O)NCC(C)O)n1` (some centres not stated) [US20240109853, Compound A316]: 421 nM and 534 nM; `C#C[C@@](C)(c1ccc(Cl)cc1)c1csc(NC(=O)NCC(C)O)n1` (some centres not stated) [US20240109853, Compound A317]: 85 nM and 156 nM.
`COc1ccc(C(C)(C)c2csc(NC(=O)c3ccc(N4CC5CC(C4)N5)cc3)n2)cc1` [US20240109853, Compound B048] displayed an IC50 of 73 nM.

Source of the values: BindingDB's records for patent US20240109853 (Shanghai Yao Yuan Biotechnology Co., 2024).
